From US12428459B2, “Protein tag to induce ligand dependent degradation of protein/protein-fusions” (DANA-FARBER CANCER INSTITUTE, INC., priority 2019, dated 2025)
pEC50, pKd, pKi: −log10 of the molar value. Entries after “also recorded” stand apart in the source; their conditions may differ.

How the values were obtained:
[1] = biological target: T1, RBM39 in HEK293T cells (Homo sapiens, UniProt Q14498+Q66K64); assay: Cellular degradation of endogenous RBM39, western blot; format: cell-based; settings: 500 nM E7820, HEK293T, 6 h
T1 construct: cellular degradation of endogenous RBM39; endogenous in cells; host or cells: HEK293T
Experimental: FIG. 7A-FIG. 7G are a series of cartoon representations, graphs, and structures depicting the biochemical characterization of DCAF15 binding to aryl-sulfonamides and RBM39RRM2. FIG. 7A is a schematic representation of TR-FRET-based DCAF15-RBM39 dimerization assay. FIG. 7B is a graph of TR-FRET for the titration of BodipyFL-RBM39RRM2 (0.02-20 μM) to DDB1ΔB-DCAF15biotin at 200 nM in the absence (DMSO) or presence of aryl-sulfonamides at 50 μM. Data is plotted as means±s.d. from three independent replicates (n=3). […] FIG. 7D is a schematic representation of TR-FRET-based DCAF15 binding assay. Compound 4 is titrated to the DDB1ΔB-DCAF15biotin, and the probe is displaced by competitor compounds. FIG. 7E is the chemical structure of BodipyFL-E7820 (4). […] Data is plotted as means±s.d. from three independent replicates (n=3). FIG. 7G is an immunoblot showing cellular degradation of endogenous RBM39. […] Shown is the uncropped blot with molecular size markers. The positions of RBM39 and GAPDH are indicated, and the asterisk marks a non-specific band. Quantitation of RBM39 and GAPDH bands was performed with the LI-COR imaging system, and % RBM39 is calculated as [RBM39 intensity/GAPDH intensity].

[2] = biological target: T2, DDB1ΔB-DCAF15 and BodipyFL-RBM39RRM2-G268V (Homo sapiens, UniProt Q14498+Q66K64, G268V); assay: TR-FRET recruitment assay with the RBM39RRM2 G268V mutant: titration of E7820; format: binding; settings: BodipyFL-RBM39RRM2-G268V 200 nM, E7820 0.002-33 μM
T2 construct: RBM39RRM2 (245-332), and RBM23RRM2 (263-341); made in house; host or cells: Trichoplusia ni High Five insect cells (baculovirus)
Experimental: (§1) Titrations of compounds to induce DCAF15-RBM39 or DCAF15-RBM23 complex were carried out by mixing 200 nM biotinylated Strep II Avi-tagged DCAF15, 200 nM BodipyFL-labeled RBM39 or RBM23 variants, and 2 nM terbium-coupled streptavidin (Invitrogen™) in an assay buffer containing 50 mM Tris pH 8.0, 200 mM NaCl, 0.1% Pluronic F-68 solution (Sigma®), and 0.5% BSA (w/v). Full-length human DCAF15 was used in all TR-FRET assays. After dispensing the assay mixture, increasing concentrations of compounds were dispensed in a 384-well microplate (Corning, 4514) using a D300e Digital Dispenser (HP) normalized to 2% DMSO. Before TR-FRET measurements were conducted, the reactions were incubated for 15 min at room temperature. After excitation of terbium fluorescence at 337 nm, emission at 490 nm (terbium) and 520 nm (BodipyFL) were recorded with a 70 μs delay over 600 μs to reduce background fluorescence, and the reaction was followed over 60 cycles of each data point using a PHERAstar® FS microplate reader (BMG Labtech). The TR-FRET signal of each data point was extracted by calculating the 520/490 nm ratio. The half-maximal effective concentration EC50 values calculated using [Agonist] vs response (three parameters) equation in GraphPad Prism® 7.

[3] = biological target: T3, DDB1ΔB-DCAF15split and BodipyFL-RBM39RRM2 (Homo sapiens, UniProt Q14498+Q66K64); assay: TR-FRET recruitment assay with DCAF15split: titration of E7820; format: binding; settings: E7820 0.002-33 μM, proteins at 200 nM
T3 construct: DCAF15 NTD (30-264), DCAF15 CTD (383-600); RBM39RRM2 (245-332), and RBM23RRM2 (263-341); Strep II Avi (N); made in house; host or cells: Trichoplusia ni High Five insect cells (baculovirus)

[4] = biological target: T4, RBM39RRM2-biotin (Homo sapiens, UniProt Q14498); assay: TR-FRET titration of BodipyFL-E7820 probe to RBM39RRM2-biotin; format: binding; settings: RBM39RRM2-biotin alone
T4 construct: RBM39RRM2 (245-332), and RBM23RRM2 (263-341); made in house; host or cells: Trichoplusia ni High Five insect cells (baculovirus)
T4 sequence (Q14498 245-332): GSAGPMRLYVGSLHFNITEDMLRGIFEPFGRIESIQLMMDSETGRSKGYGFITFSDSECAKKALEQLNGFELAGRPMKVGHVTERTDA

[5] = system: DDB1ΔB-DCAF15biotin-DDA1 / RBM39RRM2; assay: TR-FRET titration of BodipyFL-RBM39RRM2 to the DDA1-containing complex with E7820; format: binding, human; settings: with versus without DDA1
Experimental: (§2) Titrations of BodipyFL-RBM39 were carried out by mixing 400 nM biotinylated Strep II Avi-tagged DCAF15 variants, 100 μM compounds or equivalent volume of DMSO, and 4 nM terbium-coupled streptavidin in the same assay buffer. After dispensing the assay mixture, increasing concentration of BodipyFL-RBM39 was added to the compound-bound DCAF15 in a 1:1 volume ratio and incubated for 15 min at room temperature. The 520/490 nm ratios were plotted to calculate the Kd values estimated using One site-Specific binding equation in GraphPad Prism® 7.

[6] = system: DDB1ΔB-DCAF15biotin-DDA1; assay: TR-FRET titration of BodipyFL-E7820 probe to the DDA1-containing complex; format: binding, human; settings: with versus without DDA1
Experimental: Titrations of BodipyFL-E7820 (4) were carried out by mixing 200 nM biotinylated Strep II Avi-tagged DCAF15 variants or equivalent volume of the assay buffer, 2 nM terbium-coupled streptavidin in the same assay buffer. After dispensing the assay mixture, increasing concentration of BodipyFL-E7820 (4) was dispensed in the 384-well plate using D300e normalized to 2% DMSO, and then incubated for 15 min at room temperature. The 520/490 nm ratios from the sample with DCAF15 was subtracted by the ratios from the sample without DCAF15, and the subtracted values were plotted to calculate the Kd values estimated using One site-Specific binding equation in GraphPad Prism® 7. All TR-FRET results are plotted as means±s.d. from three independent replicates (n=3) unless otherwise indicated.

[7] = system: Kelly cells; assay: TMT quantification mass spectrometry proteomics (degradome of E7820); format: cell-based; settings: E7820 10 μM, 5 h
Experimental: Treated Kelly cells were washed in PBS (Corning VWR, Radnor PA, USA) and collected at 3000 g centrifugation. Sample preparation and LC-MS analysis for whole proteome identification of novel E7820-dependent substrates was performed as described previously (Donovan et al., Elife 7:38430 (2018)).

[8] = biological target: T5, DDB1ΔB-DCAF15biotin (Homo sapiens, UniProt Q66K64); assay: TR-FRET competition assay: displacement of BodipyFL-E7820 by aryl-sulfonamides; format: binding; settings: for DCAF15 binding relative to E7820: competitive binding assay
T5 construct: Full-length human DCAF15 was used in all TR-FRET assays; made in house; host or cells: Trichoplusia ni High Five insect cells (baculovirus)
From the text: The 520/490 nm ratios from the sample with DCAF15 was subtracted by the ratios from the sample without DCAF15, and the subtracted values were plotted to calculate the Kd values estimated using One site-Specific binding equation in GraphPad Prism® 7. All TR-FRET results are plotted as means±s.d. from three independent replicates (n=3) unless otherwise indicated.

[9] = system: degron tag-eGFP fusion protein in HEK293T cells; assay: Compound-dependent degradation of degron-eGFP fusion, eGFP/mCherry ratio; format: cell-based; settings: 20-hour treatment
From the text: To test compound-dependent degradation of the designed degron tags, a fusion protein of the tags and enhanced green fluorescence protein (eGFP) was stably expressed in HEK293T cells using a lentiviral vector. As an internal control, the cells also expressed an untagged mCherry protein downstream of the same promoter as degron-eGFP separated by an internal ribosomal entry site. […] A lower value of eGFP/mCherry at the same compound concentration indicates a higher rate of degradation. Designed degrons have higher degradation at low doses of aryl-sulfonamides and also lower IC50 values.

[10] = biological target: T6, DDB1ΔB-DCAF15biotin and BodipyFL-RBM39RRM2 (Homo sapiens, UniProt Q14498+Q66K64); assay: TR-FRET RBM39RRM2 recruitment assay: titration of compound; format: binding; settings: BodipyFL-RBM39RRM2-WT 200 nM, DCAF15 200 nM; read-out: EC50 of DCAF15-RBM39RRM2 complex formation
T6 construct: Full-length human DCAF15 was used in all TR-FRET assays; RBM39RRM2 (245-332), and RBM23RRM2 (263-341); made in house; host or cells: Trichoplusia ni High Five insect cells (baculovirus)
Experimental: as §1

[11] = biological target: T7, DDB1ΔB-DCAF15biotin / RBM39RRM2 (Homo sapiens, UniProt Q14498+Q66K64); assay: TR-FRET DCAF15-RBM39 dimerization assay: titration of BodipyFL-RBM39RRM2 to DDB1ΔB-DCAF15biotin with aryl-sulfonamide; format: binding; settings: compound at 50 μM; DDB1ΔB-DCAF15biotin without DDA1; read-out: KD^app of RBM39RRM2 for DDB1ΔB-DCAF15 in the presence of compound
T7 construct: Full-length human DCAF15 was used in all TR-FRET assays; RBM39RRM2 (245-332), and RBM23RRM2 (263-341); made in house; host or cells: Trichoplusia ni High Five insect cells (baculovirus)
Experimental: Time-Resolved Fluorescence Resonance Energy Transfer (TR-FRET)
as §2

| SMILES | Degradation of RBM39 in cells [1] | RBM39RRM2 recruitment to DCAF15 with Gly268Val mutation [2] | DCAF15-RBM39 dimerization, DCAF15split versus full length DCAF15 [3] | Binding to RBM39RRM2 [4] | Strengthening of apparent affinity to RBM39RRM2 by DDA1 [5] | Effect of DDA1 on the affinity of E7820 to DCAF15 [6] | Proteins degraded out of ~11,000 proteins detected [7] | pKi ([8]; DDB1ΔB-DCAF15biotin 200 nM, BodipyFL-E7820 5 μM, aryl-sulfonamides 0.002-100 μM, read-out: Ki for DCAF15) | DCAF15 binding relative to E7820 [8] | Degradation of designed degron tag-eGFP (eGFP/mCherry ratio) [9] | pEC50 [10] | pKd [11] |
| --- | --- | --- | --- | --- | --- | --- | --- | --- | --- | --- | --- | --- |
| Cc1ccc(NS(=O)(=O)c2cccc(C#N)c2)c2[nH]cc(C#N)c12 [E7820] | potently degraded | completely abrogated | equivalent binding | not with RBM39 | ~3 fold | not altered | only RBM23 to be degraded in addition to RBM39 | – | – | – | – | – |
| NS(=O)(=O)c1ccc(S(=O)(=O)Nc2cccc3c(Cl)c[nH]c23)cc1 [indisulam] | – | – | – | – | – | – | – | < 4.30 | significant loss of DCAF15 binding; also recorded: significant loss in affinity for DCAF15 | dose-dependent degradation | 5.49 | – |
| O=C(NS(=O)(=O)c1ccc(Br)s1)c1ccc(Cl)cc1Cl [tasisulam] | – | – | – | – | – | – | – | – | significant loss in affinity for DCAF15 | dose-dependent degradation | < 5.00 | 5.46 |
